The results in this text go back to patent EP4745137A1 (Gluetacs Therapeutics (Shanghai) Co., Ltd., priority 2023, dated 2025).

Holding throughout (format): cell-based
Settings in all cases: 24 hours of compound treatment

Test [1] addresses T1, WEE1 (Homo sapiens, UniProt P30291+Q96SW2).
T1 construct: endogenous in cells; host or cells: hPBMCs (Milecell Biotechnologies)
In words: Western-blot assay of substrate protein degradation in hPBMCs, WEE1.

For test [2], the target named is T2, IKZF1 (Homo sapiens, UniProt Q13422+Q96SW2).
T2 construct: endogenous in cells; host or cells: hPBMCs (Milecell Biotechnologies)
In words: Western-blot assay of substrate protein degradation in hPBMCs, IKZF1.

Test [3] deals with T3, IKZF2 (Homo sapiens, UniProt Q96SW2+Q9UKS7).
T3 construct: endogenous in cells; host or cells: hPBMCs (Milecell Biotechnologies)
In words: Western-blot assay of substrate protein degradation in hPBMCs, IKZF2.

Test [4] deals with T4, IKZF3 (Homo sapiens, UniProt Q96SW2+Q9UKT9).
T4 construct: endogenous in cells; host or cells: hPBMCs (Milecell Biotechnologies)
Kind of test: Western-blot assay of substrate protein degradation in hPBMCs, IKZF3.

Test [5] has as its target T5, CK1α (Homo sapiens, UniProt P48729+Q96SW2).
T5 construct: endogenous in cells; host or cells: hPBMCs (Milecell Biotechnologies)
Kind of test: Western-blot assay of substrate protein degradation in hPBMCs, CK1α.

Test [6] has as its target T6, GSPT1 (Homo sapiens, UniProt P15170+Q96SW2).
T6 construct: endogenous in cells; host or cells: hPBMCs (Milecell Biotechnologies)
In words: Western-blot assay of substrate protein degradation in hPBMCs, GSPT1.

The mark [7] stands for this setting: 50 nM and 500 nM tested (concentration behind the class not stated).
[8] abbreviates: compounds tested at 50 nM and 500 nM (concentration of the table not stated).

T2 sequence (Q13422 whole entry): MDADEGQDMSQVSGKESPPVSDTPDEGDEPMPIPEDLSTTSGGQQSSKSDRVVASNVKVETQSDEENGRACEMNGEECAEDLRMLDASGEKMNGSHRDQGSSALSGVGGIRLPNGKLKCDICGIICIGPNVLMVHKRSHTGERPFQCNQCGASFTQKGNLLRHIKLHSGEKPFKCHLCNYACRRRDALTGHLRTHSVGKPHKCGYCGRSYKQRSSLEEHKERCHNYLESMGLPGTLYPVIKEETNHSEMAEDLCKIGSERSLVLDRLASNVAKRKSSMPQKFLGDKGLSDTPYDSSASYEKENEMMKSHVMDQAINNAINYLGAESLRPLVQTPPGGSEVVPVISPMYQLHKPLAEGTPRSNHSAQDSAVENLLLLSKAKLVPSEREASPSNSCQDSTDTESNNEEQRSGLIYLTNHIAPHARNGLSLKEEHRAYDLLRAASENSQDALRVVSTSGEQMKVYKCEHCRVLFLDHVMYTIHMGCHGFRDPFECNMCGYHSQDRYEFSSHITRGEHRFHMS
T2 sequence (Q96SW2 whole entry): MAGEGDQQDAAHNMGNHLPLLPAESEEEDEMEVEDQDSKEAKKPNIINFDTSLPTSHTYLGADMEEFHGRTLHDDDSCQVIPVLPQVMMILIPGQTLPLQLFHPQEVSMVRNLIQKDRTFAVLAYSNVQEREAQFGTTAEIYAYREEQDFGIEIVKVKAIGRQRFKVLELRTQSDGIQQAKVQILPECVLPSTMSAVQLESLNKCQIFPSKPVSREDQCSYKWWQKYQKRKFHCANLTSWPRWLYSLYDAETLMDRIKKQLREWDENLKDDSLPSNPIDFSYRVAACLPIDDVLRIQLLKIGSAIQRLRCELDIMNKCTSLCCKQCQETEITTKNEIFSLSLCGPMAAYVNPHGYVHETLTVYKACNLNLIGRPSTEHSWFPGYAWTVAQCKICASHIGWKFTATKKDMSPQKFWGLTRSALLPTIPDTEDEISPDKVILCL
T2 sequence (Q16531 whole entry partner): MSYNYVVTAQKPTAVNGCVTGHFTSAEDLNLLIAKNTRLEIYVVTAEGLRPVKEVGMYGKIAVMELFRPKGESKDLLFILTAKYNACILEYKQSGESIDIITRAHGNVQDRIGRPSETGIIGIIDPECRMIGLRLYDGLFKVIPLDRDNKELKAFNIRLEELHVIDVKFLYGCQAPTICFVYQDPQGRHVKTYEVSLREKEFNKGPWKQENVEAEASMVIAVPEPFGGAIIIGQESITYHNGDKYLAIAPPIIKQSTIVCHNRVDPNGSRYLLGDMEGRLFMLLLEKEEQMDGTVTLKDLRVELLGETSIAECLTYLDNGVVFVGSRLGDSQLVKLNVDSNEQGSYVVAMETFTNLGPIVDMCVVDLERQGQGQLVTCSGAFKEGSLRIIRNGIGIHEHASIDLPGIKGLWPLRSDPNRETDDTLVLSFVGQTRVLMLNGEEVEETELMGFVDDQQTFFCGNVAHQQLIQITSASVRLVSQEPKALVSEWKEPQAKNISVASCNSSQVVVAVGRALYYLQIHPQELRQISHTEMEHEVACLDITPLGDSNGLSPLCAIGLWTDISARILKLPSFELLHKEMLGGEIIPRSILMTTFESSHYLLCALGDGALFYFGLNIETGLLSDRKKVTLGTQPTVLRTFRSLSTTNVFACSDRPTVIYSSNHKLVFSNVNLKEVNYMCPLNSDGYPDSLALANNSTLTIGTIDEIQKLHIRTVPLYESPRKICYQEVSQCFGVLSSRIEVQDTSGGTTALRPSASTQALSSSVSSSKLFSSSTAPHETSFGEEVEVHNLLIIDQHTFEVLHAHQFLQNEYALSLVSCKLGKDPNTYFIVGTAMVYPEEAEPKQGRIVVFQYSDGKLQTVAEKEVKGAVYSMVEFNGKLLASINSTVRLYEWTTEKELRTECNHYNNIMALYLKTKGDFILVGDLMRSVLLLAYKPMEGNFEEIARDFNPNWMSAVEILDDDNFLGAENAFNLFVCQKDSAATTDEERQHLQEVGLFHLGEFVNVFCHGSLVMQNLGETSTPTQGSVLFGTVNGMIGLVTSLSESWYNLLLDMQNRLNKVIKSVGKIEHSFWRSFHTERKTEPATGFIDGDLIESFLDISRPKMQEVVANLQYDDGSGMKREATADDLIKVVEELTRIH
T3 sequence (Q9UKS7 whole entry): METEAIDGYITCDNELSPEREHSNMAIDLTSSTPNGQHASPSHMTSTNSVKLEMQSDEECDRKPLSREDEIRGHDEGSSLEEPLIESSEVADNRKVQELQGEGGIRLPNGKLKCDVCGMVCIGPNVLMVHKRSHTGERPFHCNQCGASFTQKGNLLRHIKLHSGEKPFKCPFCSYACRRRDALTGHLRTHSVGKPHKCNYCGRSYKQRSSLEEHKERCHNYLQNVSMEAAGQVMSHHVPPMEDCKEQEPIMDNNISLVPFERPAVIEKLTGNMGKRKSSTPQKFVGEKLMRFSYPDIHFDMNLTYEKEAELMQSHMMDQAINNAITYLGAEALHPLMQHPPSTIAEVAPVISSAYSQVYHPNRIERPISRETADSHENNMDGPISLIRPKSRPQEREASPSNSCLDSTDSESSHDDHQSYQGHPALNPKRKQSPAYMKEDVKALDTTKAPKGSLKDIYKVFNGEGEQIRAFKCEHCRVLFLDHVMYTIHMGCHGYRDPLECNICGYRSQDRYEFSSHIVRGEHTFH
T3 sequence (Q96SW2 whole entry): as the sequence (Q96SW2 whole entry) above
T3 sequence (Q16531 whole entry partner): as the sequence (Q16531 whole entry partner) above
T4 sequence (Q9UKT9 whole entry): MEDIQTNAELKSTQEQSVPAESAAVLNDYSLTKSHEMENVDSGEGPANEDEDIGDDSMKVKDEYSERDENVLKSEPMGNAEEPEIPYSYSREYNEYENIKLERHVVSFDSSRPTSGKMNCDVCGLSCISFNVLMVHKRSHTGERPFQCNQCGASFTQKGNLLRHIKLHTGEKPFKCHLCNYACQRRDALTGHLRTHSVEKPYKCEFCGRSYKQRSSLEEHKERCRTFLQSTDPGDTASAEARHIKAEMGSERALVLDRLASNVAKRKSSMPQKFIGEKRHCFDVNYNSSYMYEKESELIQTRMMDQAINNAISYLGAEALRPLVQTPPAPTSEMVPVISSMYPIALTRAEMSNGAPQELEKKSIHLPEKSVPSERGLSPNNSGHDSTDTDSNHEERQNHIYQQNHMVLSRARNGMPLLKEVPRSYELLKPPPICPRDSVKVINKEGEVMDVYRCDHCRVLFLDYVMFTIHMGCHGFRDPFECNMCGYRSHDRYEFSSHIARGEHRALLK
T4 sequence (Q96SW2 whole entry): as the sequence (Q96SW2 whole entry) above
T4 sequence (Q16531 whole entry partner): as the sequence (Q16531 whole entry partner) above
T5 sequence (P48729 whole entry): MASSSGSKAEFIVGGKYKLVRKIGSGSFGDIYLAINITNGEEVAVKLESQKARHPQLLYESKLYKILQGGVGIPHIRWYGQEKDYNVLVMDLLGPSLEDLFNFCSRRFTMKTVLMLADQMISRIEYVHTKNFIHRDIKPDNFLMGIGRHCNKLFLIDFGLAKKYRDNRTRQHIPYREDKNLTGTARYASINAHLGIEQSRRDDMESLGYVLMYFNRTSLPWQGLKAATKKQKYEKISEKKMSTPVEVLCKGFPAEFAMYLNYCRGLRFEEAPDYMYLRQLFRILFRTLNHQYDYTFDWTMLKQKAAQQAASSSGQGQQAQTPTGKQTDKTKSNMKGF
T5 sequence (Q96SW2 whole entry): as the sequence (Q96SW2 whole entry) above
T5 sequence (Q16531 whole entry partner): as the sequence (Q16531 whole entry partner) above
T1 sequence (P30291 whole entry): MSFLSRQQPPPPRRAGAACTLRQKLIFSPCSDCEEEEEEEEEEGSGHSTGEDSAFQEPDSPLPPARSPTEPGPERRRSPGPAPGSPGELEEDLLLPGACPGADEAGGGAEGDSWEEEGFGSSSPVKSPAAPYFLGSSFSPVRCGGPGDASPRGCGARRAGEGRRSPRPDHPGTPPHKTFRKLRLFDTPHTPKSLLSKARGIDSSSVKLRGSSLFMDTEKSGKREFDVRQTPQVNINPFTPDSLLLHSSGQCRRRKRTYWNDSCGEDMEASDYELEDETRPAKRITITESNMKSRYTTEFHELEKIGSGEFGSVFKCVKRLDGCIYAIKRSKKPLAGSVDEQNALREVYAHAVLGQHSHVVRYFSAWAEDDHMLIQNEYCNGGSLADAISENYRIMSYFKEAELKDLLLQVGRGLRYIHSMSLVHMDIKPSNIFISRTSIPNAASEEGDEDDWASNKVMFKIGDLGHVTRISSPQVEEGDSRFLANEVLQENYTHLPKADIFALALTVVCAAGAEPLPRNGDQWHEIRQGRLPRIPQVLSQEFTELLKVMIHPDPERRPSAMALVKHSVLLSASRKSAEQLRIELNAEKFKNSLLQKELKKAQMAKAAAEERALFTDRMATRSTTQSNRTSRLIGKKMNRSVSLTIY
T1 sequence (Q96SW2 whole entry): as the sequence (Q96SW2 whole entry) above
T1 sequence (Q16531 whole entry partner): as the sequence (Q16531 whole entry partner) above

As to `COc1cccc(N2CCN(Cc3ccc4c(c3)C(=O)N(C3CCC(=O)NC3=O)C4=O)CC2)c1` (stereo not drawn) [GT-06288, 2-(2,6-dioxopiperidin-3-yl)-5-((4-(3-methoxyphenyl)piperazin-1-yl)methyl)isoindoline-1,3-dione], the “Weel substrate protein remaining %” value in test [1] (setting [7]) is “B (80%< substrate protein remaining %≤ 100%)”. The “IKZF 1 substrate protein remaining %” value in test [2] (setting [7]) is recorded as “B (80%< substrate protein remaining %≤ 100%)”. The “IKZF2 substrate protein remaining %” value in test [3] (setting [7]) is reported as “B (80%< substrate protein remaining %≤ 100%)”. For the same compound, the “IKZF3 substrate protein remaining %” value in test [4] (setting [7]) is “B (80%< substrate protein remaining %≤ 100%)”. Moreover, in test [5] (setting [7]), the “CK1a substrate protein remaining %” value is listed as “B (80%< substrate protein remaining %≤ 100%)”. In test [6] (setting [7]), the “GSPT1 substrate protein remaining %” value is reported as “A (0% ≤ substrate protein remaining % ≤ 80%)”.

Consider `Cc1cscc1C1=CCN(Cc2ccc3c(c2)C(=O)N(C2CCC(=O)NC2=O)C3=O)CC1` (stereo not drawn) [GT-06221, 2-(2,6-dioxopiperidin-3-yl)-5-((4-(4-methylthiophen-3-yl)-3,6-dihydropyridin-1(2H)-yl)methyl)isoindoline-1,3-dione], for which the “Weel substrate protein remaining %” value in test [1] (setting [7]) was “A (0% ≤ substrate protein remaining % ≤ 80%)”. In test [2] (setting [7]), the “IKZF 1 substrate protein remaining %” value was “A (0% ≤ substrate protein remaining % ≤ 80%)”. Further, the “IKZF2 substrate protein remaining %” value in test [3] (setting [7]) is listed as “A (0% ≤ substrate protein remaining % ≤ 80%)”. Also, in test [4] (setting [7]), the “IKZF3 substrate protein remaining %” value was “A (0% ≤ substrate protein remaining % ≤ 80%)”. In addition, the “CK1a substrate protein remaining %” value in test [5] (setting [7]) is reported as “A (0% ≤ substrate protein remaining % ≤ 80%)”. For the same compound, in test [6] (setting [7]), the “GSPT1 substrate protein remaining %” value is “A (0% ≤ substrate protein remaining % ≤ 80%)”.

Take `O=C1CCC(N2C(=O)c3ccc(CN4CCC(n5c(=O)[nH]c6cc(F)ccc65)CC4)cc3C2=O)C(=O)N1` (stereo not drawn) [GT-06704, 2-(2,6-dioxopiperidin-3-yl)-5-((4-(5-fluoro-2-oxo-2,3-dihydro-1H-benzo[d]imidazol-1-yl)piperidin-1-yl)methyl)isoindoline-1,3-dione]: in test [1] (setting [7]), the “Weel substrate protein remaining %” value is “B (80%< substrate protein remaining %≤ 100%)”. Besides, in test [2] (setting [7]), the “IKZF 1 substrate protein remaining %” value is “B (80%< substrate protein remaining %≤ 100%)”. Further, the “IKZF2 substrate protein remaining %” value in test [3] (setting [7]) is on record as “B (80%< substrate protein remaining %≤ 100%)”. Moreover, in test [4] (setting [7]), the “IKZF3 substrate protein remaining %” value is on record as “A (0% ≤ substrate protein remaining % ≤ 80%)”. Further, the “CK1a substrate protein remaining %” value in test [5] (setting [7]) is “B (80%< substrate protein remaining %≤ 100%)”. Also, in test [6] (setting [7]), the “GSPT1 substrate protein remaining %” value was “A (0% ≤ substrate protein remaining % ≤ 80%)”.

As for `O=C1CCC(N2C(=O)c3ccc(CN4CCN(c5cccc(F)c5F)CC4)cc3C2=O)C(=O)N1` (stereo not drawn) [GT-06300, 5-((4-(2,3-difluorophenyl)piperazin-1-yl)methyl)-2-(2,6-dioxopiperidin-3-yl)isoindoline-1,3-dione], the “Weel substrate protein remaining %” value in test [1] (setting [7]) is “B (80%< substrate protein remaining %≤ 100%)”. Besides, the “IKZF 1 substrate protein remaining %” value in test [2] (setting [7]) is reported as “B (80%< substrate protein remaining %≤ 100%)”. In test [3] (setting [7]), the “IKZF2 substrate protein remaining %” value is “B (80%< substrate protein remaining %≤ 100%)”. Besides, the “IKZF3 substrate protein remaining %” value in test [4] (setting [7]) is recorded as “B (80%< substrate protein remaining %≤ 100%)”. For the same compound, the “CK1a substrate protein remaining %” value in test [5] (setting [7]) is on record as “B (80%< substrate protein remaining %≤ 100%)”. Further, the “GSPT1 substrate protein remaining %” value in test [6] (setting [7]) is listed as “A (0% ≤ substrate protein remaining % ≤ 80%)”.

As for `O=C1CCC(N2C(=O)c3ccc(CN4CCN(c5ccccc5Cl)CC4)cc3C2=O)C(=O)N1` (stereo not drawn) [GT-06274, 5-((4-(2-chlorophenyl)piperazin-1-yl)methyl)-2-(2,6-dioxopiperidin-3-yl)isoindoline-1,3-dione], in test [1] (setting [7]), the “Weel substrate protein remaining %” value is reported as “B (80%< substrate protein remaining %≤ 100%)”. Also, the “IKZF 1 substrate protein remaining %” value in test [2] (setting [7]) is recorded as “B (80%< substrate protein remaining %≤ 100%)”. Besides, in test [3] (setting [7]), the “IKZF2 substrate protein remaining %” value is on record as “B (80%< substrate protein remaining %≤ 100%)”. Besides, the “IKZF3 substrate protein remaining %” value in test [4] (setting [7]) is “B (80%< substrate protein remaining %≤ 100%)”. Moreover, in test [5] (setting [7]), the “CK1a substrate protein remaining %” value was “B (80%< substrate protein remaining %≤ 100%)”. Moreover, the “GSPT1 substrate protein remaining %” value in test [6] (setting [7]) is “A (0% ≤ substrate protein remaining % ≤ 80%)”.

For `Cc1cc(C2=CCN(Cc3ccc4c(c3)C(=O)N(C3CCC(=O)NC3=O)C4=O)CC2)cs1` (stereo not drawn) [GT-06279, 2-(2,6-dioxopiperidin-3-yl)-5-((4-(5-methylthiophen-3-yl)-3,6-dihydropyridin-1(2H)-yl)methyl)isoindoline-1,3-dione], the “Weel substrate protein remaining %” value in test [1] (setting [7]) is listed as “A (0% ≤ substrate protein remaining % ≤ 80%)”. In addition, the “IKZF 1 substrate protein remaining %” value in test [2] (setting [7]) is reported as “A (0% ≤ substrate protein remaining % ≤ 80%)”. For the same compound, in test [3] (setting [7]), the “IKZF2 substrate protein remaining %” value is “A (0% ≤ substrate protein remaining % ≤ 80%)”. Besides, the “IKZF3 substrate protein remaining %” value in test [4] (setting [7]) is “A (0% ≤ substrate protein remaining % ≤ 80%)”. The “CK1a substrate protein remaining %” value in test [5] (setting [7]) is “A (0% ≤ substrate protein remaining % ≤ 80%)”. For the same compound, the “GSPT1 substrate protein remaining %” value in test [6] (setting [7]) is given as “A (0% ≤ substrate protein remaining % ≤ 80%)”.

Consider `O=C1CCC(N2C(=O)c3ccc(CN4CCn5c(nnc5C(F)(F)F)C4)cc3C2=O)C(=O)N1` (stereo not drawn) [GT-04921, 2-(2,6-dioxopiperidin-3-yl)-5-((3-(trifluoromethyl)-5,6-dihydro-[1,2,4]triazolo[4,3-a]pyrazin-7(8H)-yl)methyl)isoindoline-1,3-dione], for which the “Weel substrate protein remaining %” value in test [1] (setting [8]) is recorded as “A (0% ≤ substrate protein remaining % ≤ 80%)”. Besides, in test [2] (setting [8]), the “IKZF 1 substrate protein remaining %” value is recorded as “A (0% ≤ substrate protein remaining % ≤ 80%)”. For the same compound, the “IKZF2 substrate protein remaining %” value in test [3] (setting [8]) is listed as “B (80%< substrate protein remaining %≤ 100%)”. In addition, the “IKZF3 substrate protein remaining %” value in test [4] (setting [8]) was “B (80%< substrate protein remaining %≤ 100%)”. Besides, the “CK1a substrate protein remaining %” value in test [5] (setting [8]) is “B (80%< substrate protein remaining %≤ 100%)”. Further, the “GSPT1 substrate protein remaining %” value in test [6] (setting [8]) was “B (80%< substrate protein remaining %≤ 100%)”.

Turning to `O=C1CCC(N2C(=O)c3ccc(CN4CCC(c5nccc(Cl)c5Cl)CC4)cc3C2=O)C(=O)N1` (stereo not drawn) [GT-06607, 5-((4-(3,4-dichloropyridin-2-yl)piperidin-1-yl)methyl)-2-(2,6-dioxopiperidin-3-yl)isoindoline-1,3-dione], in test [1] (setting [7]), the “Weel substrate protein remaining %” value is recorded as “B (80%< substrate protein remaining %≤ 100%)”. For the same compound, the “IKZF 1 substrate protein remaining %” value in test [2] (setting [7]) was “B (80%< substrate protein remaining %≤ 100%)”. Moreover, the “IKZF2 substrate protein remaining %” value in test [3] (setting [7]) is “B (80%< substrate protein remaining %≤ 100%)”. Also, the “IKZF3 substrate protein remaining %” value in test [4] (setting [7]) is listed as “B (80%< substrate protein remaining %≤ 100%)”. Moreover, in test [5] (setting [7]), the “CK1a substrate protein remaining %” value is given as “B (80%< substrate protein remaining %≤ 100%)”. Also, the “GSPT1 substrate protein remaining %” value in test [6] (setting [7]) is on record as “A (0% ≤ substrate protein remaining % ≤ 80%)”.

Turning to `O=C1CCC(N2C(=O)c3ccc(CN4CCN(c5ccnc(F)c5F)CC4)cc3C2=O)C(=O)N1` (stereo not drawn) [GT-06535, 5-((4-(2,3-difluoropyridin-4-yl)piperazin-1-yl)methyl)-2-(2,6-dioxopiperidin-3-yl)isoindoline-1,3-dione], the “Weel substrate protein remaining %” value in test [1] (setting [7]) is recorded as “B (80%< substrate protein remaining %≤ 100%)”. In test [2] (setting [7]), the “IKZF 1 substrate protein remaining %” value is “B (80%< substrate protein remaining %≤ 100%)”. Moreover, in test [3] (setting [7]), the “IKZF2 substrate protein remaining %” value was “A (0% ≤ substrate protein remaining % ≤ 80%)”. For the same compound, the “IKZF3 substrate protein remaining %” value in test [4] (setting [7]) was “A (0% ≤ substrate protein remaining % ≤ 80%)”. In addition, the “CK1a substrate protein remaining %” value in test [5] (setting [7]) is given as “B (80%< substrate protein remaining %≤ 100%)”. Also, the “GSPT1 substrate protein remaining %” value in test [6] (setting [7]) is “B (80%< substrate protein remaining %≤ 100%)”.
